Measured values published in a compilation of properties of binary mixtures (doi:10.2298/jsc190413047v).

Assay: xn = mol fraction of the nth substance listed
Conditions: 100 kPa

CC[n+]1ccn(C)c1C.O=S(=O)([N-]S(=O)(=O)C(F)(F)F)C(F)(F)F + O=C1CCCO1
electrical conductivity [S/m]
Conditions | 293.15 K | 298.15 K | 303.15 K | 308.15 K | 313.15 K | 318.15 K | 323.15 K
x2 = 0 | 0.309 | – | 0.468 | 0.567 | 0.67 | 0.783 | –
x2 = 0.0999 | 0.383 | 0.472 | 0.574 | 0.684 | 0.805 | 0.938 | –
x2 = 0.186 | 0.476 | 0.572 | 0.686 | 0.803 | 0.934 | 1.07 | 1.21
x2 = 0.3071 | – | 0.742 | 0.868 | 1.01 | 1.16 | 1.31 | 1.45
x2 = 0.4005 | 0.726 | 0.864 | 1.01 | 1.17 | 1.33 | 1.5 | 1.61
x2 = 0.4996 | 0.881 | 1.01 | 1.17 | – | 1.51 | – | 1.81
x2 = 0.5987 | 1.06 | 1.22 | 1.37 | 1.53 | 1.7 | 1.88 | –
x2 = 0.6999 | 1.24 | – | 1.57 | 1.74 | 1.91 | 2.08 | 2.21
x2 = 0.7999 | – | – | 1.69 | 1.85 | 2.01 | 2.19 | 2.39
x2 = 0.8474 | 1.43 | 1.58 | 1.73 | 1.86 | 2.01 | 2.15 | –
x2 = 0.8999 | 1.35 | 1.48 | 1.6 | – | – | 1.97 | 2.07
x2 = 0.9507 | – | 1 | 1.08 | 1.16 | 1.24 | 1.32 | –

O=C1CCCO1 + CCCC[n+]1ccn(C)c1.O=S(=O)([N-]S(=O)(=O)C(F)(F)F)C(F)(F)F
Conditions | electrical conductivity [S/m] | viscosity [mPa·s]
293.15 K, x1 = 0.1005 | 0.347 | 46.39
293.15 K, x1 = 0.1984 | 0.388 | 37.16
293.15 K, x1 = 0.4001 | 0.519 | 23.42
293.15 K, x1 = 0.5021 | 0.637 | 17.37
293.15 K, x1 = 0.5979 | 0.797 | 12.26
293.15 K, x1 = 0.7021 | 1.13 | 8.54
293.15 K, x1 = 0.7999 | 1.34 | 5.53
293.15 K, x1 = 0.8995 | 1.34 | 3.49
293.15 K, x1 = 0.95 | 1.04 | –
293.15 K, x1 = 1 | 0.001 | 1.92
298.15 K, x1 = 0.1005 | 0.428 | 38.33
298.15 K, x1 = 0.1984 | 0.469 | 30.92
298.15 K, x1 = 0.2992 | 0.546 | 24.97
298.15 K, x1 = 0.4001 | 0.618 | 19.75
298.15 K, x1 = 0.5979 | 0.928 | 10.7
298.15 K, x1 = 0.7021 | 1.29 | 7.58
298.15 K, x1 = 0.7999 | 1.5 | 5.04
298.15 K, x1 = 0.8496 | 1.53 | –
298.15 K, x1 = 0.8995 | 1.48 | 3.26
298.15 K, x1 = 0.95 | 1.14 | –
298.15 K, x1 = 1 | 0.001 | 1.73
298.15 K, x2 = 0.0151 | 0.444 | –
303.15 K, x1 = 0.1005 | 0.501 | 31.8
303.15 K, x1 = 0.1984 | 0.552 | 25.69
303.15 K, x1 = 0.4001 | 0.72 | 16.68
303.15 K, x1 = 0.5021 | 0.853 | 12.76
303.15 K, x1 = 0.5979 | 1.05 | 9.32
303.15 K, x1 = 0.7021 | 1.43 | 6.67
303.15 K, x1 = 0.7999 | 1.65 | 4.55
303.15 K, x1 = 0.8496 | 1.69 | –
303.15 K, x1 = 0.8995 | 1.61 | 2.97
303.15 K, x1 = 0.95 | 1.23 | –
303.15 K, x1 = 1 | 0.001 | 1.63
303.15 K, x2 = 0.0151 | 0.477 | –
308.15 K, x1 = 0.1005 | 0.586 | 26.88
308.15 K, x1 = 0.1984 | 0.642 | 21.98
308.15 K, x1 = 0.2992 | 0.745 | 17.9
308.15 K, x1 = 0.4001 | 0.825 | 14.35
308.15 K, x1 = 0.5021 | 0.981 | 11.04
308.15 K, x1 = 0.7021 | 1.63 | 6
308.15 K, x1 = 0.8995 | 1.75 | 2.76
308.15 K, x1 = 0.95 | 1.32 | –
308.15 K, x2 = 0.0151 | 0.509 | –
313.15 K, x1 = 0.1005 | 0.68 | 22.69
313.15 K, x1 = 0.2992 | 0.854 | 15.26
313.15 K, x1 = 0.4001 | 1 | 12.32
313.15 K, x1 = 0.5021 | 1.2 | 9.62
313.15 K, x1 = 0.7021 | 1.81 | 5.41
313.15 K, x1 = 0.7999 | 1.98 | 3.78
313.15 K, x1 = 0.8496 | 2.01 | –
313.15 K, x1 = 0.8995 | 1.88 | 2.55
318.15 K, x1 = 0.1005 | 0.768 | 19.31
318.15 K, x1 = 0.1984 | 0.85 | 15.86
318.15 K, x1 = 0.2992 | 0.965 | 13.24
318.15 K, x1 = 0.4001 | 1.19 | 10.82
318.15 K, x1 = 0.5021 | 1.4 | 8.52
318.15 K, x1 = 0.5979 | 1.64 | 6.49
318.15 K, x1 = 0.7021 | 1.99 | 4.84
318.15 K, x2 = 0.0151 | 0.576 | –
323.15 K, x1 = 0.1005 | 0.898 | 16.54
323.15 K, x1 = 0.1984 | 1.03 | 13.86
323.15 K, x1 = 0.2992 | 1.24 | 11.57
323.15 K, x1 = 0.4001 | 1.46 | 9.47
323.15 K, x1 = 0.5021 | 1.68 | 7.51
323.15 K, x1 = 0.5979 | 1.91 | 5.83
323.15 K, x1 = 0.7021 | 2.21 | 4.44
323.15 K, x1 = 0.8496 | 2.34 | –
323.15 K, x1 = 0.8995 | 2.17 | 2.18
323.15 K, x1 = 0.95 | 1.62 | –
323.15 K, x2 = 0.0151 | 0.609 | –
